These are literature values, as cited in patent publication US20180228757A1, “EDIBLE PARTICLES COMPRISING A POLYSACCHARIDE AND A LIPID” (PERORA GMBH, priority 2015, published 2018).

The conditions of this data set: infusion into the duodenum by means of a feeding tube.

Molecules are shown by their SMILES.

As for `CCCCCCCCCCCC(=O)O` [lauric acid], the satiety signalling result is “strong satiety signalling”. With `CCCCCCCC/C=C\CCCCCCCC(=O)O` [oleic acid], the satiety signalling entry is “strong satiety signalling”.
